Reference: PubChem BioAssay AID855 (Emory University Molecular Libraries Screening Center, 2007)
Active and inactive are the calls of the source. The rule behind the calls is not given here.

These compounds were tested against Eukaryotic translation initiation factor 4E (Mus musculus) + Eukaryotic translation initiation factor 4 gamma 1 (Homo sapiens) (UniProt P63073+Q04637) (assay: blockers of eIF4G binding by eIF4E – biochemical, TR-FRET, dose response (AID 855)). Settings: TR-FRET 665/620 nm.
Eukaryotic translation initiation factor 4E (Mus musculus) + Eukaryotic translation initiation factor 4 gamma 1 (Homo sapiens), sequence (P63073 whole entry, looked up): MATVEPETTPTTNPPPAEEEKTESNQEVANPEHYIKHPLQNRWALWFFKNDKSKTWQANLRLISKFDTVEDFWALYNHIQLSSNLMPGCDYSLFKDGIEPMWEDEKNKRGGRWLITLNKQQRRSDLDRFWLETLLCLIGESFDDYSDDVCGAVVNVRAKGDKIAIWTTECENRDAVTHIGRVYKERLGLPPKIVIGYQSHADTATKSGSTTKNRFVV
Eukaryotic translation initiation factor 4E (Mus musculus) + Eukaryotic translation initiation factor 4 gamma 1 (Homo sapiens), sequence (Q04637 whole entry, looked up): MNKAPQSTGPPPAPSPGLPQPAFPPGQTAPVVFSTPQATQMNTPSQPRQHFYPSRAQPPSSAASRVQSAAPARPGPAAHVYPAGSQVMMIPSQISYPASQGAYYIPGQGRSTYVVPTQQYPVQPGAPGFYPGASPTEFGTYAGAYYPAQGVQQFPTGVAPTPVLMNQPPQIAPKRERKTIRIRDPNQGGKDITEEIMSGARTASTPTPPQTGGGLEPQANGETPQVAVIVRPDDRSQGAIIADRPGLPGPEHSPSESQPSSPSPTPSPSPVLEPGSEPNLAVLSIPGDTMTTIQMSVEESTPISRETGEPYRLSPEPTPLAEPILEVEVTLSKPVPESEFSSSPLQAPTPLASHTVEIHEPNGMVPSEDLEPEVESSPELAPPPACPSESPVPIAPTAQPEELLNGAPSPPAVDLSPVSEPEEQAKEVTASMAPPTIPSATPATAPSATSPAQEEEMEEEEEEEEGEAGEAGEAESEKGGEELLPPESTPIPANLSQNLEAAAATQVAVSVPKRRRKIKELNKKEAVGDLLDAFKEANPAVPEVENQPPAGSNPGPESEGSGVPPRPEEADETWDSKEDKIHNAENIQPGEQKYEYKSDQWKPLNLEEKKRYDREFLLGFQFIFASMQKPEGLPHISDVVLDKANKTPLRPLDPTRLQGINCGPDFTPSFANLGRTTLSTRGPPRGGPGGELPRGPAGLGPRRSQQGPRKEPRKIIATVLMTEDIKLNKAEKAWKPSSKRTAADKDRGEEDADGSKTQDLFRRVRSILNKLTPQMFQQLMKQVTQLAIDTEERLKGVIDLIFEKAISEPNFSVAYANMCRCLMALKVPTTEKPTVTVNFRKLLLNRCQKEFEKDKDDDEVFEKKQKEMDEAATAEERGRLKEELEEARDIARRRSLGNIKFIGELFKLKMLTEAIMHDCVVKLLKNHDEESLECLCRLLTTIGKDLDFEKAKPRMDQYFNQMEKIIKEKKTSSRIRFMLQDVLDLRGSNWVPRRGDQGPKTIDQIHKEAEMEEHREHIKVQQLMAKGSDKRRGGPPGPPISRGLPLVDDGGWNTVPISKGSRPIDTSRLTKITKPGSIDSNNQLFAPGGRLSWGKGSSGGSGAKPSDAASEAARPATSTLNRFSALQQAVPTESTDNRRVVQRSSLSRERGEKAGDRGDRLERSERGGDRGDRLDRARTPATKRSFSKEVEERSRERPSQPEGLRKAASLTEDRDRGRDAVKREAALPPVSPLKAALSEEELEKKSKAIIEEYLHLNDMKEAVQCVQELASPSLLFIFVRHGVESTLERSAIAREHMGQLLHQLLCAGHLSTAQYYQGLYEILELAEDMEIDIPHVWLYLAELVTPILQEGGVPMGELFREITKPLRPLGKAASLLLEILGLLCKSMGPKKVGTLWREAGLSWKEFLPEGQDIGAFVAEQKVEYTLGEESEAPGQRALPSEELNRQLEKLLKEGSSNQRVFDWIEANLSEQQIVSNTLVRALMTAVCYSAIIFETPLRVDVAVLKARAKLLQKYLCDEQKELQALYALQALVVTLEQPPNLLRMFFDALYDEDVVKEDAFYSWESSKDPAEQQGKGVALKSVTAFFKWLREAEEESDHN

Structure (SMILES) | IC50
O=C1CC(c2ccco2)CC(O)=C1C=Nc1cc(Cl)cc(Cl)c1 (stereo not given) | > 64 µM (inactive)

Same assay, conditions: TR-FRET 665/620 nm, at 64 µM (top of the series)

Structure (SMILES) | percent of control, lower = inhibition
CCn1c2ccccc2c2nc3cc(S(=O)(=O)N4CCOCC4)ccc3nc21 | inactive
O=C(CCn1[nH]c(=O)c2ccccc2c1=O)NCCO | inactive
O=C(OCCN1C(=O)c2cccc3c(N4CCOCC4)ccc(c23)C1=O)c1cc(Cl)cc(Cl)c1 | inactive
CCOc1ccc(-c2nc(=S)[nH][nH]2)cc1 | inactive
CCOC(=O)c1ccccc1NC(=O)Cn1cnc2c(nnn2-c2ccc(C)cc2)c1=O | inactive
CCOC(=O)C(C)n1ncn2cccc2c1=O (stereo not given) | inactive
O=C(CSCC(=O)Nc1ccc2ccccc2c1)NCc1ccccc1 | inactive
CC(=O)Nc1ccnc(-c2cccnc2)n1 | inactive
CCn1c(C2CC(=O)N(Cc3ccccc3)C2)nc2ccccc21 (stereo not given) | inactive
COc1c(Cl)cc(-c2noc(C)c2C(=O)NC(C)C)cc1Cl | inactive
Cc1[nH]n(-c2ccccc2)c(=S)c1C=Nc1cccc([N+](=O)[O-])c1 | inactive
CCOC(=O)c1c(NC(=O)c2cc(-c3ccc(O)cc3)on2)sc(C(C)=O)c1C | inactive
CN1CCCN(Cc2ccccc2C(F)(F)F)CC1 | inactive
O=C(/N=C1\NC(=O)C(F)(C(F)(F)F)S1)NC1CCCCC1 (stereo not given) | inactive
Cc1nn(CCC#N)c2c1P(=S)(N1CCCC1)OC(c1ccc(F)cc1)=N2 (stereo not given) | inactive
C=CCNC(=O)COc1cc(C)ccc1C | inactive
O=C(Nc1nnc(C23CC4CC(CC(C4)C2)C3)s1)c1ccc(N2C(=O)CCC2=O)cc1 | inactive
N#C/C(=C\c1sc(N2CCOCC2)nc1-c1ccccc1)C(=O)Nc1cccc2ccccc12 | inactive
COc1ccc(C(=O)Nc2ccc3oc(Cc4ccc(Cl)cc4)nc3c2)cc1OC | inactive
Cc1cc(NC(=O)CSc2ccccc2)no1 | inactive
Cc1noc(C)c1CSc1nc2cc(S(=O)(=O)N3CCOCC3)ccc2o1 | inactive
COc1cc(CC(=O)Nc2ccc3c(c2)CCC3)cc(OC)c1OC | inactive
CC(=O)Nc1ccc(S(=O)(=O)NNC(=O)COc2cccc(C)c2)cc1 | inactive
CCN(CC)S(=O)(=O)c1ccc(Cl)c(C(=O)Oc2cccnc2)c1 | inactive
CCNC(=O)c1ccc(CSc2ccc(Cl)cc2)cc1 | inactive
CCC(C(=O)NC(C)CCc1ccco1)n1nc(C)n2c(cc3occc32)c1=O (stereo not given) | inactive
O=C(NC1CCCC1)c1cnc2n(c1=O)CCS2 | inactive
CCN=C(N/N=C/c1ccc([N+](=O)[O-])cc1)SC | inactive
O=C(N/N=C/c1ccccc1O)c1cc(=O)[nH]c2ccccc12 | inactive
